Measured values from patent publication US9605005B2, “Alkynyl alcohols and methods of use” (Genentech, Inc., priority 2013, dated 2017).

Molecular target: nuclear factor-kappa B (NF-kB)-inducing kinase (NIK) (Homo sapiens (Human), UniProt Q99558)
Assay: NIK enzyme inhibition assay (Transcreener ADP, NIK ADP-FP)
Type: biochemical
Conditions: purified NIK 0.5 nM, 10 μM ATP, fluorescence polarization; read-out: NIK ADP-FP (Ki μM)

Chain of nuclear factor-kappa B (NF-kB)-inducing kinase (NIK) (Q99558 whole entry): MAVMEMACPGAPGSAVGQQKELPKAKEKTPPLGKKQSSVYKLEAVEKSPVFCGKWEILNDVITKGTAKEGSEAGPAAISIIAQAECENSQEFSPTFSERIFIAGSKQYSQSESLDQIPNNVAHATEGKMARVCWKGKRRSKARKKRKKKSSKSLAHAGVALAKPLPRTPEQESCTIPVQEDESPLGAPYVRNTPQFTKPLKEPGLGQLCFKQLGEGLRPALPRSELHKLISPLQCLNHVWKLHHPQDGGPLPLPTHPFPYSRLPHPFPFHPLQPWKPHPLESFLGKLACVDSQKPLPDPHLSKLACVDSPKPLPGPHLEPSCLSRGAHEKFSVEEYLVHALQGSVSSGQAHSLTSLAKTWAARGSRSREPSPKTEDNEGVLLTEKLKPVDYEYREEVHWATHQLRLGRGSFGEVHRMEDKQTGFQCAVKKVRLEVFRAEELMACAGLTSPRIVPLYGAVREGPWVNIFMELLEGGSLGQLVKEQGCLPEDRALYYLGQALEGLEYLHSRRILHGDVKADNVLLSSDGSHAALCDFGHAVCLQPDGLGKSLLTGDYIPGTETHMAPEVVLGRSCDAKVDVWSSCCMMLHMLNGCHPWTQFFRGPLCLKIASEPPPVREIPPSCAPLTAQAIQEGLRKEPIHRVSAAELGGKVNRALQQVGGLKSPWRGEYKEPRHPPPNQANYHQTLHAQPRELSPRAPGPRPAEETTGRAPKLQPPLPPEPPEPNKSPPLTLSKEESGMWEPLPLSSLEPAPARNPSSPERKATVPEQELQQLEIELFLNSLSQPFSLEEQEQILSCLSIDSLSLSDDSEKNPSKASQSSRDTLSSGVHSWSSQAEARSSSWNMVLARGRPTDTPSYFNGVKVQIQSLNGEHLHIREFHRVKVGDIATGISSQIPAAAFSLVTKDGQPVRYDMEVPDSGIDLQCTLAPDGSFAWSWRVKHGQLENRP

Compound | Ki [µM]
CN1CC[C@@](O)(C#Cc2ccnc(-n3nc(C(N)=O)c4c3CC(C)(C)CC4)c2)C1=O [Compound 4, 1-[4-[2-[(3R)-3-hydroxy-1-methyl-2-oxo-pyrrolidin-3-yl]ethynyl]-2-pyridyl]-6,6-dimethyl-5,7-dihydro-4H-inda-zole-3-carboxamide] | 0.00292
CN1CC[C@@](O)(C#Cc2ccnc(-n3nc(C(N)=O)c4c3C[C@]3(C)C[C@@H]3C4)c2)C1=O [Compound 5, (4aR,5aS)-1-[4-[2-[(3R)-3-hydroxy-1-methyl-2-oxo-pyrroli-din-3-yl]ethynyl]-2-pyri-dyl]-5a-methyl-4,4a,5,6-tetrahydrocyclopropa[f]inda-zole-3-carboxamide] | 0.0139
CN1CC[C@@](O)(C#Cc2ccnc(-n3nc(C(N)=O)c4c3CC(C)(C)[C@@H](OCc3ccccc3)C4)c2)C1=O [Compound 7, (5S)-5-benzyloxy-1-[4-[2-[(3R)-3-hydroxy-1-methyl-2-oxo-pyrrolidin-3-yl]ethynyl]-2-pyridyl]-6,6-dimethyl-5,7-dihydro-4H-indazole-3-carboxamide] | 0.0455
CN1CC[C@@](O)(C#Cc2ccnc(-n3nc(C(N)=O)c4c3CC(C)(C)[C@H](OCc3ccccc3)C4)c2)C1=O [Compound 8, (5R)-5-benzyloxy-1-[4-[2-[(3R)-3-hydroxy-1-methyl-2-oxo-pyrrolidin-3-yl]ethynyl]-2-pyridyl]-6,6-dimethyl-5,7-dihydro-4H-indazole-3-carboxamide] | 0.0724
CN1CC[C@@](O)(C#Cc2ccnc(-n3nc(C(N)=O)c4c3CC(C)(C)[C@H](O)C4)c2)C1=O [Compound 9, (5R)-5-hydroxy-1-[4-[2-[(3R)-3-hydroxy-1-methyl-2-oxo-pyrrolidin-3-yl]ethynyl]-2-pyridyl]-6,6-dimethyl-5,7-dihydro-4H-indazole-3-carboxamide] | 0.0332
CN1CC[C@@](O)(C#Cc2ccnc(-n3nc(C(N)=O)c4c3CC(C)(C)[C@@H](O)C4)c2)C1=O [Compound 11, (5S)-5-hydroxy-1-[4-[2-[(3R)-3-hydroxy-1-methyl-2-oxo-pyrrolidin-3-yl]ethynyl]-2-pyridyl]-6,6-dimethyl-5,7-dihydro-4H-indazole-3-carboxamide] | 0.0134
CN1CC[C@@](O)(C#Cc2ccnc(-n3nc(C(N)=O)c4c3CCC[C@H]4NC(=O)C3CC3)c2)C1=O [Compound 15, (4R)-4-(cyclopropanecarbo-nylamino)-1-[4-[2-[(3R)-3-hydroxy-1-methyl-2-oxo-pyrrolidin-3-yl]ethynyl]-2-pyridyl]-4,5,6,7-tetrahydroinda-zole-3-carboxamide] | 0.382
CN1CC[C@@](O)(C#Cc2ccnc(-n3nc(C(N)=O)c4c3CCC[C@@H]4NC(=O)C3CC3)c2)C1=O [Compound 17, (4S)-4-(cyclopropanecarbo-nylamino)-1-[4-[2-[(3R)-3-hydroxy-1-methyl-2-oxo-pyrrolidin-3-yl]ethynyl]-2-pyridyl]-4,5,6,7-tetrahydroin-dazole-3-carboxamide] | 0.146
CC(=O)N1CCc2c(c(C(N)=O)nn2-c2cccc(C#C[C@]3(O)CCN(C)C3=O)c2)C1 [Compound 19, 5-acetyl-1-[3-[2-[(3R)-3-hy-droxy-1-methyl-2-oxo-pyrroli-din-3-yl]ethynyl]phenyl]-6,7-dihydro-4H-pyrazolo[4,3-c]pyridine-3-carboxamide] | 0.0102
CN1CC[C@@](O)(C#Cc2cccc(-n3nc(C(N)=O)c4c3CCN(C(=O)C3CC3)C4)c2)C1=O [Compound 20, 5-(cyclopropanecarbonyl)-1-[3-[2-[(3R)-3-hydroxy-1-methyl-2-oxo-pyrrolidin-3-yl]ethynyl]phenyl]-6,7-dihydro-4H-pyrazolo[4,3-c]pyri-dine-3-carboxamide] | 0.00489
CN1CC[C@@](O)(C#Cc2cccc(-n3nc(C(N)=O)c4c3CCNC4)c2)C1=O [Compound 21, 1-[3-[2-[(3R)-3-hydroxy-1-methyl-2-oxo-pyrrolidin-3-yl]ethynyl]phenyl]-4,5,6,7-tetra-hydropyrazolo[4,3-c]pyri-dine-3-carboxamide] | 0.233
COc1cccc2c(C(N)=O)nn(-c3cccc(C#C[C@]4(O)CCN(C)C4=O)c3)c12 [Compound 23, 1-[3-[2-[(3R)-3-hydroxy-1-methyl-2-oxo-pyrrolidin-3-yl]ethynyl]phenyl]-7-methoxy-indazole-3-carboxamide] | 0.00975
CN1CC[C@@](O)(C#Cc2cccc(-n3nc(C(N)=O)c4c3CCCC4(F)F)c2)C1=O [Compound 24, 4,4-difluoro-1-[3-[2-[(3R)-3-hydroxy-1-methyl-2-oxo-pyrrolidin-3-yl]ethynyl]phe-nyl]-6,7-dihydro-5H-indazole-3-carboxamide] | 0.00762
C[C@@](O)(C#Cc1cccc(-n2nc(C(N)=O)c3ccccc32)c1)c1ncccn1 [Compound 28, 1-[3-[(3R)-3-hydroxy-3-pyri-midin-2-yl-but-1-ynyl]phe-nyl]indazole-3-carboxamide] | 0.0352
Cc1nc([C@](C)(O)C#Cc2cccc(-n3nc(C(N)=O)c4ccccc43)c2)no1 [Compound 29, 1-[3-[(3R)-3-hydroxy-3-(5-methyl-1,2,4-oxadiazol-3-yl)but-1-ynyl]phenyl]indazole-3-carboxamide] | 0.0367
CN1CC[C@@](O)(C#Cc2cccc(-n3nc(C(N)=O)c4c3CCC[C@H]4NC(=O)C3CC3)c2)C1=O [Compound 32, (4R)-4-(cyclopropanecarbonyl-amino)-1-[3-[2-[(3R)-3-hydroxy-1-methyl-2-oxo-pyrroli-din-3-yl]ethynyl]phenyl]-4,5,6,7-tetrahydroindazole-3-carboxamide] | 1.04
CN1CC[C@@](O)(C#Cc2cccc(-n3nc(C(N)=O)c4c3CCN(C3COC3)C4)c2)C1=O [Compound 33, 1-[3-[2-[(3R)-3-hydroxy-1-methyl-2-oxo-pyrrolidin-3-yl]ethynyl]phenyl]-5-(oxetan-3-yl)-6,7-dihydro-4H-pyra-zolo[4,3-c]pyridine-3-carbox-amide] | 0.259
CN1CC[C@@](O)(C#Cc2cccc(-n3nc(C(N)=O)c4c3CCC[C@H]4n3cccn3)c2)C1=O [Compound 34, (4R)-1-[3-[2-[(3R)-3-hydroxy-1-methyl-2-oxo-pyrrolidin-3-yl]ethynyl]phenyl]-4-pyrazol-1-yl-4,5,6,7-tetrahydro-indazole-3-carboxamide] | 0.606
CN1CC[C@@](O)(C#Cc2cccc(-n3nc(C(N)=O)c4c3CCC[C@@H]4NC(=O)C3CC3)c2)C1=O [Compound 37, (4S)-4-(cyclopropanecarbo-nylamino)-1-[3-[2-[(3R)-3-hydroxy-1-methyl-2-oxo-pyrrolidin-3-yl]ethynyl]phen-yl]-4,5,6,7-tetrahydroindazole-3-carboxamide] | 0.193
CN1CC[C@@](O)(C#Cc2cccc(-n3nc(C(N)=O)c4c3CCC[C@@H]4n3cccn3)c2)C1=O [Compound 38, (4S)-1-[3-[2-[(3R)-3-hydroxy-1-methyl-2-oxo-pyrrolidin-3-yl]ethynyl]phenyl]-4-pyrazol-1-yl-4,5,6,7-tetrahydro-indazole-3-carboxamide] | 0.0101
CN1CC[C@@](O)(C#Cc2cccc(-n3nc(C(N)=O)c4c3CCN(CC(C)(C)O)C4)c2)C1=O [Compound 40, 1-[3-[2-[(3R)-3-hydroxy-1-methyl-2-oxo-pyrrolidin-3-yl]ethynyl]phenyl]-5-(2-hy-droxy-2-methyl-propyl)-6,7-dihydro-4H-pyrazolo[4,3-c]pyridine-3-carboxamide] | 0.071
C[C@H](O)c1ccc2c(c1)c(C(N)=O)nn2-c1cccc(C#C[C@]2(O)CCN(C)C2=O)c1 [Compound 45, 5-[(1S)-1-hydroxyethyl]-1-[3-[2-[(3R)-3-hydroxy-1-meth-yl-2-oxo-pyrrolidin-3-yl]ethynyl]phenyl]indazole-3-carboxamide] | 0.00233
CN1CC[C@@](O)(C#Cc2cccc(-n3nc(C(N)=O)c4c3C[C@@]3(C)C(C4)C3(F)F)c2)C1=O (stereo partly drawn) [Compound 47, (5aS)-5,5-difluoro-1-[3-[2-[(3R)-3-hydroxy-1-methyl-2-oxo-pyrrolidin-3-yl]ethyn-yl]phenyl]-5a-methyl-4a,6-dihydro-4H-cyclopropa[f] indazole-3-carboxamide] | 0.0226
CN1CC[C@@](O)(C#Cc2cccc(-n3nc(C(N)=O)c4cc(CN5CCCC5)ccc43)c2)C1=O [Compound 48, 1-[3-[2-[(3R)-3-hydroxy-1-methyl-2-oxo-pyrrolidin-3-yl]ethynyl]phenyl]-5-(pyrro-lidine-1-ylmethyl)indazole-3-carboxamide] | 0.0647
CN1CC[C@@](O)(C#Cc2cccc(-n3nc(C(N)=O)c4c3C[C@]3(C)C(C4)C3(F)F)c2)C1=O (stereo partly drawn) [Compound 50, (5aR)-5,5-difluoro-1-[3-[2-[(3R)-3-hydroxy-1-methyl-2-oxo-pyrrolidin-3-yl]ethyn-yl]phenyl]-5a-methyl-4a,6-dihydro-4H-cyclopropa[f]inda-zole-3-carboxamide] | 0.17
CN1CC[C@@](O)(C#Cc2ccnc(-n3nc(C(N)=O)c4c3C3CC(C4)C3)c2)C1=O [Compound 58, (R)-1-(4-((3-hydroxy-1-meth-yl-2-oxopyrrolidin-3-yl)eth-ynyl)pyridin-2-yl)-4,5,6,7-tetrahydro-1H-5,7-methano-indazole-3-carboxamide] | 0.0187
CN1CC[C@@](O)(C#Cc2ccnc(-n3nc(C(N)=O)c4c3CC3CC4C3)c2)C1=O [Compound 59, (R)-1-(4-((3-hydroxy-1-meth-yl-2-oxopyrrolidin-3-yl)eth-ynyl)pyridin-2-yl)-4,5,6,7-tetrahydro-1H-4,6-methano-indazole-3-carboxamide] | 0.0072
CN1CC[C@@](O)(C#Cc2ccnc(-n3nc(C(N)=O)c4c3C[C@H](O)CC4)c2)C1=O [Compound 61, (6R)-6-hydroxy-1-[4-[2-[(3R)-3-hydroxy-1-methyl-2-oxo-pyrrolidin-3-yl]ethynyl]-2-pyridyl]-4,5,6,7-tetrahydro-indazole-3-carboxamide] | 0.00446
CN1CC[C@@](O)(C#Cc2ccnc(-n3nc(C(N)=O)c4c3C[C@@H](O)CC4)c2)C1=O [Compound 62, (6S)-6-hydroxy-1-[4-[2-[(3R)-3-hydroxy-1-methyl-2-oxo-pyrrolidin-3-yl]ethynyl]-2-pyridyl]-4,5,6,7-tetrahydro-indazole-3-carboxamide] | 0.00547
